{
  "source": "patent US12629390B2",
  "about": "“Stabilized amorphous calcium carbonate for treatment of neurological, muscular and infertility diseases or conditions” (AMORPHICAL LTD., priority 2016, dated 2026)",
  "key": {"[1]": {"system": "mice embryos", "assay": "in vitro embryo development in Quinn's Advantage cleavage media", "format": "cell-based", "experimental": "CBA male mice were bred with BL C57 female mice. The mice were kept on a 12 hours photoperiod schedule with unlimited water and food supply. About 6 to 8 weeks after receiving offspring, each female mouse was injected IP with 5IU of pregnant mare serum gonadotropin (PMSG).\nAfter 48 hours each female mouse was injected IP with 5IU human chorionic gonadotropin (hCG). Male mice proven to be fertile were then put together with the superovulated females. The next morning the female mice were examined for the presence of copulatory plugs. Females that had copulatory plugs were euthanized after 24 hours (approximately 36 hours post-coitus) and embryos at 2 cell stage were retrieved from the oviducts as following: the oviducts were dissected in Quinn's Advantage cleavage media (SAGE, Origio, Denmark) and the embryos were transferred to 20 μL drops with Quinn's Advantage cleavage media (SAGE, Origio, Denmark) overlaid with mineral oil and cultured at 37.0° C. under 5% CO2 and atmospheric oxygen. The collected embryos continued to grow, i.e. in-vitro culture (IVC), until blastocyst/hatching stage. To test the effect of amorphous calcium carbonate, the Quinn's Advantage cleavage media (“cleavage media” hereinafter) was supplemented with different additives, i.e. amorphous calcium carbonate stabilized by polyphosphate (ACC-PP), crystalline calcium carbonate (CCC), polyphosphate (PP), phosphoserine (PS) or sodium carbonate ([…]). All supplements were added as a freshly prepared suspension; the preparation of the ACC supplements were performed under aseptic conditions. Untreated cleavage media (without addition of any additive) was used as a control (identified as Cont Q). The embryos were evaluated every day by microscope observation for a detection of the following stages: 2 cells, compactions stage, blastocysts formation and hatching stage. The fraction (in percent) of the embryos reached each stage was calculated (the number of 2 cells embryos was set as 100%)."}, "[2]": {"system": "spinal cord-dorsal root ganglia (SC-DRG) slices", "assay": "nerve fiber sprouting from SC-DRG co-cultures", "format": "cell-based, rat", "conditions": "calcium preparation at Ca2+ 2 mM; after 4 days of cultivation; portion of explants (out of 6)", "experimental": "Neural and Vascular Reconstruction Gel ([…] Labs proprietary) is composed of two main components: high molecular hyaluronic acid (HA, 3×10^6 Da, BTG, Israel) and laminin (Sigma). […] The gel has the texture of a viscous liquid, it adheres easily and successfully the embedded cells or explants to the plastic or glass substratum, and enabled nerve fiber outgrowth in a 3D pattern. All the experiments were carried out and authorized by the local ethics committee recognized by the Israeli authorities for animal experimentation. Stationary organotypic cultures of dorsal root ganglia (DRG) and spinal cord (SC) as well as cultures of dissociated brain cells were prepared from rat fetuses (15 days of gestation, Lewis inbred, Harlan, Israel). Immediately after dissection, the isolated tissues were cut with a […] tissue chopper into small slices (of 400 μm thickness). In these studies, two tissue culture strategies were used. […] In the second method, the tissue slices were further dissociated with a trypsin-EDTA solution for 30 min, and washed with a culture medium. Subsequently, the dissociated cells were added to a suspension of chitosan powder or gastrolith powder (micro carriers, MCs) and incubated in suspension at 37° C. for 4 days. […] Calcium source were as following: ACC-Etidronic Acid (ACC-ET) (fresh suspension); ACC-Phosphoserine (ACC-PS) (fresh suspension); Gastrolith (dissolved with 0.1 M HCl and then neutralized with NaOH 1M); gastrolith powder; […] The cultures were monitored by daily phase contrast microscopic observations starting from 24 hours after setting the cultures onward. Suspensions of fresh ACC preparations consisted of particles forming a stable suspension. The gastrolith is a natural ACC isolated from crabs, and can be purchased only as a dry powder. In this form, its other characteristic components (such as calcium ions and proteins) are not available to the cells. In order to increase their bioavailability, the gastrolith powder was dissolved in 0.1 M HCl (which mimics the acidity which exists in the stomach) and then neutralized with 1M NaOH. […] The specimens were then incubated with rabbit anti-neurofilament antibodies (NF, Novus Biologicals, 1:500) to visualize the neurite outgrowth. […] Finally, the samples were rinsed again with wash buffer, and mounted with mounting medium (Immco Diagnostic, USA)."}, "[3]": {"conditions": "Example 9 Test A, 1.7 mM in cleavage media"}, "[4]": {"conditions": "Example 9 Test B, 1.7 mM CaCl2 or ACC-PP in cleavage media"}, "[5]": {"conditions": "Example 10, 1.7 mM CaCl2 or ACC-PP in cleavage media"}, "[6]": {"conditions": "Example 11, 1.7 mM in cleavage media"}, "[7]": {"conditions": "Example 12, mouse 1, embryos grown separately, 1.7 mM in cleavage media"}, "[8]": {"conditions": "Example 12, mouse 2, embryos grown separately, 1.7 mM in cleavage media"}, "[9]": {"conditions": "Example 12, mouse 3, embryos grown separately, 1.7 mM in cleavage media"}, "[10]": {"conditions": "Example 12, mouse 4, embryos grown separately, 1.7 mM in cleavage media"}, "[11]": {"conditions": "Example 16, pooled embryos, 1.7 mM in cleavage media"}},
  "data": [
    {"compound": "[Ca+2].[Cl-].[Cl-]", "note": "[CaCl2, calcium chloride]", "values": [
      {"measurement": "Blast/d3: number of embryos", "setting": "[1]; [3]", "value": 16},
      {"measurement": "Blast/d3: portion of the initial number of embryos", "setting": "[1]; [3]", "value": 64, "unit": "%"},
      {"measurement": "Comp/d2: portion of the initial number of embryos", "setting": "[1]; [3]", "value": 64, "unit": "%"},
      {"measurement": "comp/d2: number of embryos", "setting": "[1]; [3]", "value": 16},
      {"measurement": "Blast/d3: number of embryos", "setting": "[1]; [4]", "value": 20},
      {"measurement": "Blast/d3: portion of the initial number of embryos", "setting": "[1]; [4]", "value": 74, "unit": "%"},
      {"measurement": "Comp/d2: portion of the initial number of embryos", "setting": "[1]; [4]", "value": 70, "unit": "%"},
      {"measurement": "Hatch/d4: number of embryos", "setting": "[1]; [4]", "value": 11},
      {"measurement": "Hatch/d4: portion of the initial number of embryos", "setting": "[1]; [4]", "value": 40.7, "unit": "%"},
      {"measurement": "comp/d2: number of embryos", "setting": "[1]; [4]", "value": 20},
      {"measurement": "Blast/d3: number of embryos", "setting": "[1]; [5]", "value": 8},
      {"measurement": "Blast/d3: portion of the initial number of embryos", "setting": "[1]; [5]", "value": 80, "unit": "%"},
      {"measurement": "Comp/d2: portion of the initial number of embryos", "setting": "[1]; [5]", "value": 30, "unit": "%"},
      {"measurement": "Hatch/d4: number of embryos", "setting": "[1]; [5]", "value": 3},
      {"measurement": "Hatch/d4: portion of the initial number of embryos", "setting": "[1]; [5]", "value": 30, "unit": "%"},
      {"measurement": "comp/d2: number of embryos", "setting": "[1]; [5]", "value": 3},
      {"measurement": "Blast/d3: number of embryos", "setting": "[1]; [6]", "value": 24},
      {"measurement": "Blast/d3: portion of the initial number of embryos", "setting": "[1]; [6]", "value": 80, "unit": "%"},
      {"measurement": "Comp/d2: portion of the initial number of embryos", "setting": "[1]; [6]", "value": 53.3, "unit": "%"},
      {"measurement": "Hatch/d4: number of embryos", "setting": "[1]; [6]", "value": 13},
      {"measurement": "Hatch/d4: portion of the initial number of embryos", "setting": "[1]; [6]", "value": 43.3, "unit": "%"},
      {"measurement": "comp/d2: number of embryos", "setting": "[1]; [6]", "value": 16},
      {"measurement": "2Cell/d1: number of embryos", "setting": "[1]; [7]", "value": 3},
      {"measurement": "8Cell/d2: number of embryos", "setting": "[1]; [7]", "value": 2},
      {"measurement": "Blast/d3: number of embryos", "setting": "[1]; [7]", "value": 1},
      {"measurement": "Blast/d3: portion of the initial number of embryos", "setting": "[1]; [7]", "value": 8.3, "unit": "%"},
      {"measurement": "Hatch/d4: number of embryos", "setting": "[1]; [7]", "value": "0 (0)"},
      {"measurement": "Hatch/d4: portion of the initial number of embryos", "setting": "[1]; [7]", "value": "0 (0) %"},
      {"measurement": "comp/d2: number of embryos", "setting": "[1]; [7]", "value": 1},
      {"measurement": "irreg/d1: number of embryos", "setting": "[1]; [7]", "value": 9},
      {"measurement": "2Cell/d1: number of embryos", "setting": "[1]; [8]", "value": 3},
      {"measurement": "8Cell/d2: number of embryos", "setting": "[1]; [8]", "value": 0},
      {"measurement": "Blast/d3: number of embryos", "setting": "[1]; [8]", "value": 2},
      {"measurement": "Blast/d3: portion of the initial number of embryos", "setting": "[1]; [8]", "value": 22.2, "unit": "%"},
      {"measurement": "Hatch/d4: number of embryos", "setting": "[1]; [8]", "value": "0 (0)"},
      {"measurement": "Hatch/d4: portion of the initial number of embryos", "setting": "[1]; [8]", "value": "0 (0) %"},
      {"measurement": "comp/d2: number of embryos", "setting": "[1]; [8]", "value": 3},
      {"measurement": "irreg/d1: number of embryos", "setting": "[1]; [8]", "value": 6},
      {"measurement": "2Cell/d1: number of embryos", "setting": "[1]; [9]", "value": 7},
      {"measurement": "8Cell/d2: number of embryos", "setting": "[1]; [9]", "value": 0},
      {"measurement": "Blast/d3: number of embryos", "setting": "[1]; [9]", "value": 5},
      {"measurement": "Blast/d3: portion of the initial number of embryos", "setting": "[1]; [9]", "value": 50, "unit": "%"},
      {"measurement": "Hatch/d4: number of embryos", "setting": "[1]; [9]", "value": 3},
      {"measurement": "Hatch/d4: portion of the initial number of embryos", "setting": "[1]; [9]", "value": 30, "unit": "%"},
      {"measurement": "comp/d2: number of embryos", "setting": "[1]; [9]", "value": 6},
      {"measurement": "irreg/d1: number of embryos", "setting": "[1]; [9]", "value": 3},
      {"measurement": "2Cell/d1: number of embryos", "setting": "[1]; [10]", "value": 14},
      {"measurement": "8Cell/d2: number of embryos", "setting": "[1]; [10]", "value": 4},
      {"measurement": "Blast/d3: number of embryos", "setting": "[1]; [10]", "value": 12},
      {"measurement": "Blast/d3: portion of the initial number of embryos", "setting": "[1]; [10]", "value": 66.7, "unit": "%"},
      {"measurement": "Hatch/d4: number of embryos", "setting": "[1]; [10]", "value": 7},
      {"measurement": "Hatch/d4: portion of the initial number of embryos", "setting": "[1]; [10]", "value": 41.2, "unit": "%"},
      {"measurement": "comp/d2: number of embryos", "setting": "[1]; [10]", "value": 10},
      {"measurement": "irreg/d1: number of embryos", "setting": "[1]; [10]", "value": 4},
      {"measurement": "effect on embryonic development (percentages of blastocysts and hatched blastocysts)", "setting": "[1]; Example 16, 1.7 mM in cleavage media", "value": "negative effect"},
      {"measurement": "8 cell/d2: number of embryos", "setting": "[1]; [11]", "value": 6},
      {"measurement": "Blast/d3: number of embryos", "setting": "[1]; [11]", "value": 10},
      {"measurement": "Blast/d3: portion of the initial number of embryos", "setting": "[1]; [11]", "value": 90.90, "unit": "%"},
      {"measurement": "Hatch/d4: number of embryos", "setting": "[1]; [11]", "value": 4},
      {"measurement": "Hatch/d4: portion of the initial number of embryos", "setting": "[1]; [11]", "value": 36.36, "unit": "%"},
      {"measurement": "comp/d2: number of embryos", "setting": "[1]; [11]", "value": 5},
      {"measurement": "Cultures with axonal regeneration (%)", "setting": "[2]", "value": 50, "unit": "%"}
    ]}
  ]
}
